Experimental data reported in PubChem BioAssay (NCI).
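Protocol summary: plate cells (96-well), add compound at 5 concentrations, incubate 48 h, interpolate endpoints linearly. TGI denotes the concentration required for complete inhibition of growth.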

Legend:
Assay in all cases: inhibition of tumour cell growth, NCI panel, 48 h
786-0 renal = tested on: 786-0 renal
A549 NSCLC = tested on: A549 NSCLC
ACHN renal = tested on: ACHN renal
CAKI-1 renal = tested on: CAKI-1 renal
CCRF-CEM leukemia = tested on: CCRF-CEM leukemia
COLO 205 colon = tested on: COLO 205 colon
DLD-1 colon = tested on: DLD-1 colon
DMS 114 small cell lung = tested on: DMS 114 small cell lung
DMS 273 small cell lung = tested on: DMS 273 small cell lung
EKVX NSCLC = tested on: EKVX NSCLC
HCC-2998 colon = tested on: HCC-2998 colon
HCT-116 colon = tested on: HCT-116 colon
HL-60(TB) leukemia = tested on: HL-60(TB) leukemia
HOP-18 NSCLC = tested on: HOP-18 NSCLC
HOP-62 NSCLC = tested on: HOP-62 NSCLC
HOP-92 NSCLC = tested on: HOP-92 NSCLC
HT29 colon = tested on: HT29 colon
K-562 leukemia = tested on: K-562 leukemia
KM12 colon = tested on: KM12 colon
KM20L2 colon = tested on: KM20L2 colon
LOX IMVI melanoma = tested on: LOX IMVI melanoma
LXFL 529 NSCLC = tested on: LXFL 529 NSCLC
M14 melanoma = tested on: M14 melanoma
M19-MEL melanoma = tested on: M19-MEL melanoma
MALME-3M melanoma = tested on: MALME-3M melanoma
MOLT-4 leukemia = tested on: MOLT-4 leukemia
NCI-H226 lung = tested on: NCI-H226 lung
NCI-H23 lung = tested on: NCI-H23 lung
NCI-H460 lung = tested on: NCI-H460 lung
NCI-H522 lung = tested on: NCI-H522 lung
OVCAR-3 ovarian = tested on: OVCAR-3 ovarian
OVCAR-4 ovarian = tested on: OVCAR-4 ovarian
OVCAR-5 ovarian = tested on: OVCAR-5 ovarian
OVCAR-8 ovarian = tested on: OVCAR-8 ovarian
RPMI-8226 leukemia = tested on: RPMI-8226 leukemia
RXF 393 renal = tested on: RXF 393 renal
RXF-631 renal = tested on: RXF-631 renal
SF-268 CNS = tested on: SF-268 CNS
SF-295 CNS = tested on: SF-295 CNS
SF-539 CNS = tested on: SF-539 CNS
SK-MEL-2 melanoma = tested on: SK-MEL-2 melanoma
SK-MEL-28 melanoma = tested on: SK-MEL-28 melanoma
SK-MEL-5 melanoma = tested on: SK-MEL-5 melanoma
SK-OV-3 ovarian = tested on: SK-OV-3 ovarian
SN12C renal = tested on: SN12C renal
SNB-19 CNS = tested on: SNB-19 CNS
SNB-75 CNS = tested on: SNB-75 CNS
SR leukemia = tested on: SR leukemia
SW-620 colon = tested on: SW-620 colon
TK-10 renal = tested on: TK-10 renal
U251 CNS = tested on: U251 CNS
UACC-257 melanoma = tested on: UACC-257 melanoma
UACC-62 melanoma = tested on: UACC-62 melanoma
UO-31 renal = tested on: UO-31 renal
XF 498 CNS = tested on: XF 498 CNS

Measured: TGI

CN(C)c1ccc(C=C2C(=O)OC(C)(C)OC2=O)cc1Br
> 100 µM: all assays above
